Measured values from patent publication EP4635500A1, “THERAPEUTIC AGENT FOR BACTERIAL INFECTION” (Sumitomo Pharma Co., Ltd., priority 2022, dated 2024).
Values after ≈ are worked out from the molar mass of the structure shown. Where two headings read alike, the source gives them in different places.

Tested on: carbapenemase-producing Enterobacteriaceae (CPE)
Assay: MIC in human urine and CAMHB at pH 5.0 to 8.0 (Example 13, Tables 29, 30)

Work on `C[C@@H](O)[C@H]1C(=O)N2C(C(=O)O)=C(S[C@@H]3CN[C@H](C(=O)N(C)C)C3)[C@H](C)[C@H]12` [MEPM, meropenem] yielded an MIC (Escherichia coli, ATCCBAA2469, pH 7.2, read-out: MICs of MEPM, E. coli ATCC BAA-2469 (NDM-1), Standard condition (CAMHB pH7.2)) of 32 µg/mL (≈ 83.4 µM), an MIC (Escherichia coli, ATCCBAA2469, pH 8, read-out: MICs of MEPM, E. coli ATCC BAA-2469 (NDM-1), CAMHB pH8.0) of 64 µg/mL (≈ 167 µM) and an MIC (Escherichia coli, ATCCBAA2469, pH 8, read-out: MICs of MEPM, E. coli ATCC BAA-2469 (NDM-1), Human urine pH8.0) of 8 µg/mL (≈ 20.9 µM). The MIC (Escherichia coli, NCTC13476, pH 5, read-out: MICs of MEPM, E. coli NCTC 13476 (IMP-1), CAMHB pH5.0) was 0.25 µg/mL (≈ 0.652 µM), the MIC (Escherichia coli, NCTC13476, pH 5, read-out: MICs of MEPM, E. coli NCTC 13476 (IMP-1), Human urine pH5.0) was 0.25 µg/mL (≈ 0.652 µM) and the MIC (Escherichia coli, NCTC13476, pH 6, read-out: MICs of MEPM, E. coli NCTC 13476 (IMP-1), CAMHB pH6.0) was 1 µg/mL (≈ 2.61 µM). The MIC (Escherichia coli, NCTC13476, pH 6, read-out: MICs of MEPM, E. coli NCTC 13476 (IMP-1), Human urine pH6.0) was 0.12 µg/mL (≈ 0.313 µM), the MIC (Escherichia coli, NCTC13476, pH 7, read-out: MICs of MEPM, E. coli NCTC 13476 (IMP-1), Human urine pH7.0) was 1 µg/mL (≈ 2.61 µM) and the MIC (Escherichia coli, NCTC13476, pH 7.2, read-out: MICs of MEPM, E. coli NCTC 13476 (IMP-1), Standard condition (CAMHB pH7.2)) was 4 µg/mL (≈ 10.4 µM). It also gave an MIC (Escherichia coli, NCTC13476, pH 8, read-out: MICs of MEPM, E. coli NCTC 13476 (IMP-1), CAMHB pH8.0) of 16 µg/mL (≈ 41.7 µM), an MIC (Escherichia coli, NCTC13476, pH 8, read-out: MICs of MEPM, E. coli NCTC 13476 (IMP-1), Human urine pH8.0) of 8 µg/mL (≈ 20.9 µM) and an MIC (Klebsiella pneumoniae, ATCCBAA2342, pH 5, read-out: MICs of MEPM, K. pneumoniae ATCC BAA-2342 (KPC-3), CAMHB pH5.0) of 16 µg/mL (≈ 41.7 µM). The MIC (Klebsiella pneumoniae, ATCCBAA2342, pH 5, read-out: MICs of MEPM, K. pneumoniae ATCC BAA-2342 (KPC-3), Human urine pH5.0) was 4 µg/mL (≈ 10.4 µM), the MIC (Klebsiella pneumoniae, ATCCBAA2342, pH 6, read-out: MICs of MEPM, K. pneumoniae ATCC BAA-2342 (KPC-3), CAMHB pH6.0) was 16 µg/mL (≈ 41.7 µM) and the MIC (Klebsiella pneumoniae, ATCCBAA2342, pH 6, read-out: MICs of MEPM, K. pneumoniae ATCC BAA-2342 (KPC-3), Human urine pH6.0) was 8 µg/mL (≈ 20.9 µM). For the same compound, the MIC (Klebsiella pneumoniae, ATCCBAA2342, pH 7, read-out: MICs of MEPM, K. pneumoniae ATCC BAA-2342 (KPC-3), Human urine pH7.0) was 16 µg/mL (≈ 41.7 µM), the MIC (Klebsiella pneumoniae, ATCCBAA2342, pH 7.2, read-out: MICs of MEPM, K. pneumoniae ATCC BAA-2342 (KPC-3), Standard condition (CAMHB pH7.2)) was 16 µg/mL (≈ 41.7 µM) and the MIC (Klebsiella pneumoniae, ATCCBAA2342, pH 8, read-out: MICs of MEPM, K. pneumoniae ATCC BAA-2342 (KPC-3), CAMHB pH8.0) was 16 µg/mL (≈ 41.7 µM). For the same compound, the MIC (Klebsiella pneumoniae, ATCCBAA2342, pH 8, read-out: MICs of MEPM, K. pneumoniae ATCC BAA-2342 (KPC-3), Human urine pH8.0) was 32 µg/mL (≈ 83.4 µM), the MIC (Klebsiella pneumoniae, ATCCBAA2344, pH 5, read-out: MICs of MEPM, K. pneumoniae ATCC BAA-2344 (KPC-2), CAMHB pH5.0) was 8 µg/mL (≈ 20.9 µM) and the MIC (Klebsiella pneumoniae, ATCCBAA2344, pH 5, read-out: MICs of MEPM, K. pneumoniae ATCC BAA-2344 (KPC-2), Human urine pH5.0) was 2 µg/mL (≈ 5.22 µM). It also gave an MIC (Klebsiella pneumoniae, ATCCBAA2344, pH 6, read-out: MICs of MEPM, K. pneumoniae ATCC BAA-2344 (KPC-2), CAMHB pH6.0) of 32 µg/mL (≈ 83.4 µM), an MIC (Klebsiella pneumoniae, ATCCBAA2344, pH 6, read-out: MICs of MEPM, K. pneumoniae ATCC BAA-2344 (KPC-2), Human urine pH6.0) of 8 µg/mL (≈ 20.9 µM) and an MIC (Klebsiella pneumoniae, ATCCBAA2344, pH 7, read-out: MICs of MEPM, K. pneumoniae ATCC BAA-2344 (KPC-2), Human urine pH7.0) of 32 µg/mL (≈ 83.4 µM). For the same compound, the MIC (Klebsiella pneumoniae, ATCCBAA2344, pH 7.2, read-out: MICs of MEPM, K. pneumoniae ATCC BAA-2344 (KPC-2), Standard condition (CAMHB pH7.2)) was 32 µg/mL (≈ 83.4 µM), the MIC (Klebsiella pneumoniae, ATCCBAA2344, pH 8, read-out: MICs of MEPM, K. pneumoniae ATCC BAA-2344 (KPC-2), CAMHB pH8.0) was 32 µg/mL (≈ 83.4 µM) and the MIC (Klebsiella pneumoniae, ATCCBAA2344, pH 8, read-out: MICs of MEPM, K. pneumoniae ATCC BAA-2344 (KPC-2), Human urine pH8.0) was 32 µg/mL (≈ 83.4 µM). For the same compound, the MIC (Klebsiella pneumoniae, ATCCBAA2470, pH 5, read-out: MICs of MEPM, K. pneumoniae ATCC BAA-2470 (NDM-1), CAMHB pH5.0) was 0.12 µg/mL (≈ 0.313 µM), the MIC (Klebsiella pneumoniae, ATCCBAA2470, pH 5, read-out: MICs of MEPM, K. pneumoniae ATCC BAA-2470 (NDM-1), Human urine pH5.0) was 0.12 µg/mL (≈ 0.313 µM) and the MIC (Klebsiella pneumoniae, ATCCBAA2470, pH 6, read-out: MICs of MEPM, K. pneumoniae ATCC BAA-2470 (NDM-1), CAMHB pH6.0) was 8 µg/mL (≈ 20.9 µM). The MIC (Klebsiella pneumoniae, ATCCBAA2470, pH 6, read-out: MICs of MEPM, K. pneumoniae ATCC BAA-2470 (NDM-1), Human urine pH6.0) was 0.12 µg/mL (≈ 0.313 µM), the MIC (Klebsiella pneumoniae, ATCCBAA2470, pH 7, read-out: MICs of MEPM, K. pneumoniae ATCC BAA-2470 (NDM-1), Human urine pH7.0) was 16 µg/mL (≈ 41.7 µM) and the MIC (Klebsiella pneumoniae, ATCCBAA2470, pH 7.2, read-out: MICs of MEPM, K. pneumoniae ATCC BAA-2470 (NDM-1), Standard condition (CAMHB pH7.2)) was 16 µg/mL (≈ 41.7 µM). The MIC (Klebsiella pneumoniae, ATCCBAA2470, pH 8, read-out: MICs of MEPM, K. pneumoniae ATCC BAA-2470 (NDM-1), CAMHB pH8.0) was 64 µg/mL (≈ 167 µM), the MIC (Klebsiella pneumoniae, ATCCBAA2470, pH 8, read-out: MICs of MEPM, K. pneumoniae ATCC BAA-2470 (NDM-1), Human urine pH8.0) was 8 µg/mL (≈ 20.9 µM) and the MIC (Klebsiella pneumoniae, ATCCBAA2524, pH 5, read-out: MICs of MEPM, K. pneumoniae ATCC BAA-2524 (OXA-48), CAMHB pH5.0) was 0.25 µg/mL (≈ 0.652 µM). It also gave an MIC (Klebsiella pneumoniae, ATCCBAA2524, pH 5, read-out: MICs of MEPM, K. pneumoniae ATCC BAA-2524 (OXA-48), Human urine pH5.0) of 0.25 µg/mL (≈ 0.652 µM), an MIC (Klebsiella pneumoniae, ATCCBAA2524, pH 6, read-out: MICs of MEPM, K. pneumoniae ATCC BAA-2524 (OXA-48), CAMHB pH6.0) of 0.25 µg/mL (≈ 0.652 µM) and an MIC (Klebsiella pneumoniae, ATCCBAA2524, pH 6, read-out: MICs of MEPM, K. pneumoniae ATCC BAA-2524 (OXA-48), Human urine pH6.0) of 0.25 µg/mL (≈ 0.652 µM). The MIC (Klebsiella pneumoniae, ATCCBAA2524, pH 7, read-out: MICs of MEPM, K. pneumoniae ATCC BAA-2524 (OXA-48), Human urine pH7.0) was 0.25 µg/mL (≈ 0.652 µM), the MIC (Klebsiella pneumoniae, ATCCBAA2524, pH 7.2, read-out: MICs of MEPM, K. pneumoniae ATCC BAA-2524 (OXA-48), Standard condition (CAMHB pH7.2)) was 1 µg/mL (≈ 2.61 µM) and the MIC (Klebsiella pneumoniae, ATCCBAA2524, pH 8, read-out: MICs of MEPM, K. pneumoniae ATCC BAA-2524 (OXA-48), CAMHB pH8.0) was 4 µg/mL (≈ 10.4 µM). The MIC (Klebsiella pneumoniae, ATCCBAA2524, pH 8, read-out: MICs of MEPM, K. pneumoniae ATCC BAA-2524 (OXA-48), Human urine pH8.0) was 1 µg/mL (≈ 2.61 µM), the MIC (Klebsiella pneumoniae, NCTC13439, pH 5, read-out: MICs of MEPM, K. pneumoniae NCTC13439 (VIM-1), CAMHB pH5.0) was 0.12 µg/mL (≈ 0.313 µM) and the MIC (Klebsiella pneumoniae, NCTC13439, pH 5, read-out: MICs of MEPM, K. pneumoniae NCTC13439 (VIM-1), Human urine pH5.0) was 0.12 µg/mL (≈ 0.313 µM). For the same compound, the MIC (Klebsiella pneumoniae, NCTC13439, pH 6, read-out: MICs of MEPM, K. pneumoniae NCTC13439 (VIM-1), CAMHB pH6.0) was 1 µg/mL (≈ 2.61 µM), the MIC (Klebsiella pneumoniae, NCTC13439, pH 6, read-out: MICs of MEPM, K. pneumoniae NCTC13439 (VIM-1), Human urine pH6.0) was 0.06 µg/mL (≈ 0.156 µM) and the MIC (Klebsiella pneumoniae, NCTC13439, pH 7, read-out: MICs of MEPM, K. pneumoniae NCTC13439 (VIM-1), Human urine pH7.0) was 2 µg/mL (≈ 5.22 µM). It also gave an MIC (Klebsiella pneumoniae, NCTC13439, pH 7.2, read-out: MICs of MEPM, K. pneumoniae NCTC13439 (VIM-1), Standard condition (CAMHB pH7.2)) of 4 µg/mL (≈ 10.4 µM), an MIC (Klebsiella pneumoniae, NCTC13439, pH 8, read-out: MICs of MEPM, K. pneumoniae NCTC13439 (VIM-1), CAMHB pH8.0) of 4 µg/mL (≈ 10.4 µM) and an MIC (Klebsiella pneumoniae, NCTC13439, pH 8, read-out: MICs of MEPM, K. pneumoniae NCTC13439 (VIM-1), Human urine pH8.0) of 1 µg/mL (≈ 2.61 µM).
